Laboratory results published in patent publication US9883669B2, “Maintenance medium for primate pluripotent stem cells” (priority 2014, dated 2018).

System: human iPS cells (253G1 lines and 201B7 lines)
Experiment: Observation of colony morphology of human iPS cells by light microscope
Assay type: cell-based
Settings: xylose 3 g/L, 0, 24, 48, 72 hours, KSR
Protocol: During culture period, medium change was performed daily.
For a xylose medium for iPS cells in which xylose concentrations were 3 g/L and 15 g/L, the morphology of iPS cell colonies at 96 and 120 hours after culture was also observed with a light microscope (IX70, manufactured by Olympus Corporation).

| Structure (SMILES) | colony morphology and proliferation inhibitory effects, D-xylose versus L-xylose |
| --- | --- |
| O=C[C@H](O)[C@@H](O)[C@H](O)CO [D-xylose] | no differences |
| O=C[C@@H](O)[C@H](O)[C@@H](O)CO [L-xylose] | no differences |
